{"source": "patent US20240117385A1", "about": "“ENZYMES OF LUCIFERIN BIOSYNTHESIS AND USE THEREOF” (LIGHT BIO, INC., priority 2018, published 2024)", "key": {"HEK293NT cells": {"test_system": "HEK293NT cells", "assay": "Luminescence of HEK293NT cells expressing hispidin hydroxylase and luciferase on adding hispidin", "assay_type": "cell-based, human", "settings": "hispidin 800 μg/ml, 24 hours after transfection"}, "[1]": {"test_system": "hispidin hydroxylase and luciferase fusion protein", "assay": "Bioluminescence of HEK293T cells expressing hispidin hydroxylase and luciferase fusion protein", "assay_type": "cell-based, Neonothopanus nambi", "settings": "24 hours after transfection, 1 million of cells in 0.5 ml PBS; hispidin 10 μg per 1 million of cells", "text": "Humanized DNA sequences coding hispidin-hydroxylase and luciferase of Neonothopanus nambi, obtained according to Example 2, were operatively cross-linked to each other by flexible short peptide linker with amino acid sequence GGSGGSGGS (SEQ ID NOs:115). Nucleotide and amino acid sequences of the obtained fused protein are shown in SEQ ID NO 101 and 102. Nucleic acid coding fused protein was cloned into pEGFP-N1 vector (Clontech, USA) instead of EGFP gene under Cytomegaloviral promoter control. The obtained structure was transfected into HEK293T cells. Analogous vectors, comprising individual genes of hispidin hydroxylase and luciferase, were also co-transfected. Transfection was performed by transfection agent FuGENE HD (Promega, USA) according to the manufacturer's protocol. 24 hours after transfection 1 million of cells were resuspended in 0.5 ml of PBS, and luminescence without adding hispidin and with addition of hispidin (10 μg per 1 million of cells) was recorded by luminometer."}, "[2]": {"test_system": "Neonothopanus nambi hispidin hydroxylase and luciferase", "assay": "Bioluminescence reaction of biosynthetic hispidin", "assay_type": "biochemical", "settings": "hispidin purified from fermenter medium by HPLC", "procedure": "The obtained E. coli strain was used for producing hispidin. At the first step the bacteria were incubated in five 50 ml plastic tubes in LB medium within 10 hours at 200 rpm fluctuation at 37° C. 250 ml of the obtained culture were added to 3.3 litres of fermentation medium into a fermenter Biostat B5 (Braun, Germany) so that initial culture optical density at 600 nm was about 0.35. Fermentation medium comprised 10 g/l of peptone, 5 g/l of caffeic acid, 5 g/l of yeast extract, 10 g/l of NaCl, 25 g/l of glucose, 15 g/l of (NH4)2SO4, 2 g/l of KH2PO4, 2 g/l of MgSO4·7 H2O, 14.7 mg/l of CaCl2), 0.1 mg/l of thiamine, 1.8 mg/l and 0.1% of the solution composed of: EDTA 8 mg/l, CoCl2·6 H2O 2.5 mg/l, MnCl2·4H2O 15 mg/l, CuCl2·2H2O 1.5 mg/l, H3BO3 3 mg/l, Na2MoO4·2H2O 2.5 mg/l, Zn(CH3COO)2·2H2O 13 mg/l, iron (III) citrate 100 mg/l, thiamine hydrochloride 4.5 mg/l. Fermentation was carried out at 37° C., with 3 l/min aeration and 200 rpm mixing. After 25 hours of cultivation arabinose was added to the culture up to final concentration of 0.1 mM. pH was automatically controlled by adding of NH4OH, […] pH to 7.0. […]"}, "[3]": {"test_system": "Physcomitrella patens moss", "assay": "Bioluminescence of transgenic moss gametophytes soaked in hispidin", "assay_type": "in vivo", "settings": "hispidin 900 μg/ml in BCD medium", "text": "Coding sequences of Neonothopanus nambi hispidin hydroxylase and luciferase were optimized for expression in Physcomitrella patens moss cells. Then, in silico there was created an expression cassette comprising promoter of rice aktI gene, human cytomegalovirus 5′-untranslated region coding hispidin hydroxylase sequence optimized for expression in plant cells (SEQ ID NO 103), terminating codon, Agrobacterium osc gene terminator sequence, rice ubiquitin promoter, coding sequence of Neonothopanus nambi luciferase (SEQ ID NO 112) optimized for expression in moss cells, Agrobacterium tumefaciens nos gene terminator.\nThe obtained sequence was synthesized in such a way, that all said fragments appeared to be operatively cross-linked to each other, and cloned by Gibson assembly technique [Gibson et al., Nat Methods, 2009, 6:343-5] into expression vector pLand #1 (Institut Jean-Pierre Bourgin, France), between DNA fragments coincident with locus of Physcomitrella patens moss genomic DNA between sequences of highly expressed moss genes Pp3c16_6440 V3.1 and Pp3c16_6460 V3.1. The vector pLand #1 also comprised a guide RNA (sgRNA) sequence for Cas9 nuclease, complementary to the region of the same DNA locus. […]\nThe obtained moss gametophytes were soaked in BCD medium comprising hispidin at concentration of 900 μg/ml, and analyzed by means of IVIS Spectrum In Vivo Imaging System (Perkin Elmer)."}}}
{"compound": "O=c1cc(O)cc(/C=C/c2ccc(O)c(O)c2)o1", "note": "[hispidin, (E)-6-(3,4-dihydroxystyryl)-4-hydroxy-2H-pyran-2-one]", "values": [{"measurement": "luminescence intensity exceeding the signal from untransfected control cells", "setting": "HEK293NT cells", "result": "more than by two orders of magnitude"}, {"measurement": "cell luminescence on addition", "setting": "[1]", "result": "caused cell luminescence in green spectrum"}, {"measurement": "activity in bioluminescence reaction", "setting": "[2]", "result": "active in bioluminescence reaction"}, {"measurement": "bioluminescence intensity exceeding the signal of control plants expressing luciferase only", "setting": "[3]", "result": "minimum by two orders of magnitude"}]}
